# Test results from ChEMBL document CHEMBL3045701, “Comprehensive structureactivity relationship analysis of substituted 5-(biphenyl-4-ylmethyl) pyrazoles derivatives as AT1 selective angiotensin II receptor antagonists: 2D and kNNMFA QSAR approach” (Med Chem Res, 2013).
# Molecular target: T1, Angiotensin II receptor (AT-1) type-1 (Rattus norvegicus, UniProt P29089+P25095)
# T1 sequence (P29089 whole entry): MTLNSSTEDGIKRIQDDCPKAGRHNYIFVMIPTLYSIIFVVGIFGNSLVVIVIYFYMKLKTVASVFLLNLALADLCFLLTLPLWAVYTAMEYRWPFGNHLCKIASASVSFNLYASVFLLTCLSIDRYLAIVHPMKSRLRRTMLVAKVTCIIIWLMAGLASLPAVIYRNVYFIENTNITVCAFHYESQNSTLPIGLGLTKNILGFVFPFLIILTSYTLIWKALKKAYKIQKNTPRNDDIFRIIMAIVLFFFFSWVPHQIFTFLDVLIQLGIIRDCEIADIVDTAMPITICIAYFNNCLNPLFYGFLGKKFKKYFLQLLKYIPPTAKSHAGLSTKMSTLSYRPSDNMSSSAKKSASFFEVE
# T1 sequence (P25095 whole entry): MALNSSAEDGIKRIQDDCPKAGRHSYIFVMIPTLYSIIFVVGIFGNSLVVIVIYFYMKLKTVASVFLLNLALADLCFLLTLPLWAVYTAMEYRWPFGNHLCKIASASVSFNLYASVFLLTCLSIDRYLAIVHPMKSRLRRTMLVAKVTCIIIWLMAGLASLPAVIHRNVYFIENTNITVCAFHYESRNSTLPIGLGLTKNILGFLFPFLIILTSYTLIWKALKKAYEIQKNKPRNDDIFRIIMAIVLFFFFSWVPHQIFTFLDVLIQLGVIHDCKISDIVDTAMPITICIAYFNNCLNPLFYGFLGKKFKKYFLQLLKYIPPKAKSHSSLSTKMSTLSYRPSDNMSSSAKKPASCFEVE
# Assay: Antagonist activity at AT1 receptor in Rattus norvegicus (rat) liver
Compound,pIC50,IC50
CCCCn1nc(C)c(C(=O)O)c1Cc1ccc(-c2ccccc2-c2nn[nH]n2)cc1,8.567,
CCCn1nc(C(C)C)c(C(=O)O)c1Cc1ccc(-c2ccccc2NS(=O)(=O)C(F)(F)F)cc1,7.13,74 nM
CCCCn1nc(C)c(C(=O)O)c1Cc1ccc(-c2ccccc2S(=O)(=O)Nc2ccccc2)cc1,7.92,12 nM
CCCCOC(=O)NS(=O)(=O)c1ccccc1-c1ccc(Cc2c(C(=O)O)cnn2CCCC)cc1,7.522,13 nM
CCCn1nc(C2CC2)c(C(=O)O)c1Cc1ccc(-c2ccccc2S(=O)(=O)Nc2ccccc2)cc1,7.744,18 nM
CCCn1nc(C2CC2)c(C(N)=O)c1Cc1ccc(-c2ccccc2S(=O)(=O)Nc2ccccc2)cc1,8.13,7.4 nM
CCCn1nc(C(C)C)c(C(=O)O)c1Cc1ccc(-c2ccccc2C(=O)O)cc1,6.886,130 nM
CCCCc1nn(CCC)c(Cc2ccc(-c3ccccc3-c3nnn[nH]3)cc2)c1C(=O)O,8.522,3 nM
Cc1nn(-c2ccccc2)c(Cc2ccc(-c3ccccc3-c3nn[nH]n3)cc2)c1C(=O)O,7.102,
